Reference: ChEMBL document CHEMBL1154271, “Anti-tumor-promoting effects of 25-methoxyporicoic acid A and other triterpene acids from Poria cocos” (J Nat Prod, 2009)

What was measured:
[1] = Cytotoxicity against human Raji cells assessed as cell viability at 1000 molar ratio; format: cell-based; settings: read-out: INH
[2] = test system: Raji; test: Inhibition of TPA-induced EBV early antigen activation in human Raji cells at 1000 molar relative to TPA; values are per cent of control; settings: human gammaherpesvirus 4
[3] = test system: Raji; test: Inhibition of TPA-induced EBV early antigen activation in human Raji cells at 500 molar relative to TPA; values are per cent of control; settings: human gammaherpesvirus 4
[4] = test system: Raji; test: Inhibition of TPA-induced EBV early antigen activation in human Raji cells at 100 molar relative to TPA; values are per cent of control; settings: human gammaherpesvirus 4
[5] = Inhibition of TPA-induced EBV early antigen activation in human Raji cells relative to TPA; format: cell-based, human gammaherpesvirus 4
[6] = Cytotoxicity against human CRL1579 cells after 48 hrs by MTT assay; format: functional, cell-based
[7] = test system: HL-60; test: Cytotoxicity against human HL60 cells after 48 hrs by MTT assay; format: functional, cell-based; settings: HL-60, 48 h
[8] = test system: Raji; test: Inhibition of TPA-induced EBV early antigen activation in human Raji cells at 10 molar ratio relative to TPA; values are per cent of control; settings: human gammaherpesvirus 4
[9] = species: Mus musculus; test: Inhibition of DMBA-induced/TPA-promoted carcinogenesis in ICR mouse assessed as reduction of skin papillomas measured after 11 weeks relative to TPA; format: functional
[10] = species: Mus musculus; test: Inhibition of DMBA-induced/TPA-promoted carcinogenesis in ICR mouse assessed as reduction of skin papillomas measured after 20 weeks relative to TPA; format: functional

SMILES | IC50 [5] [molar ratio] | viability at 1000 molar ratio [1] [%] | level, % of control [2] [%] | level, % of control [3] [%] | level, % of control [4] [%] | IC50 [6] [µM] | IC50 [7] [µM] | level, % of control [8] [%] | inhibition (INH) [9] [%] | inhibition (INH) [10] [%]
C=C(CC[C@@H](C(=O)O)[C@H]1[C@H](O)C[C@@]2(C)[C@]34C=C[C@@]5(OO3)C(C)(C)[C@@H](O)CC[C@]5(C)C4=CC[C@]12C)C(C)C |  |  |  |  |  | > 100 | > 100 |  |  | 
C=C(C)[C@@H]1CC=C2C(=CC[C@]3(C)[C@@H]([C@@H](CCC(=C)C(C)(O)CO)C(=O)O)[C@H](O)C[C@@]23C)[C@@]1(C)CCC(=O)OC (stereo partly specified) | 187 | 70 | 0 | 14.1 | 55.3 | 98.4 | 94.6 | 80.2 |  | 
C=C(CC[C@@H](C(=O)O)[C@H]1[C@H](O)C[C@@]2(C)C3=CC[C@H]4C(C)(C)[C@H](O)CC[C@]4(C)C3=CC[C@]12C)C(C)(C)O |  |  |  |  |  | 84 | 29.4 |  |  | 
CC(C)(O)c1ccc2c(c1)C(=O)C[C@H]1[C@](C)(C(=O)O)CCC[C@]21C | 238 | 60 | 0 | 19.5 | 69.1 | > 100 | > 100 | 93.4 |  | 
C=C(CC[C@@H](C(=O)O)[C@H]1[C@H](O)C[C@@]2(C)C3=C(CC[C@]12C)[C@@](C)(CCC(=O)O)[C@H](C(=C)C)C=C3)C(C)C [6,7-DEHYDROPORICOIC ACID H] | 193 | 70 | 0 | 15.2 | 56 | > 100 | > 100 | 80.9 |  | 
C=C(CC[C@@H](C(=O)O)[C@H]1[C@H](O)C[C@@]2(C)C3=CC[C@@H](C(=C)C)[C@](C)(CCC(=O)OC)C3=CC[C@]12C)C(C)C [PORICOIC ACID AM] |  |  |  |  |  | 88.9 | 15.9 |  |  | 
C=C(CC[C@@H](C(=O)O)[C@H]1[C@H](O)C[C@@]2(C)C3=CC[C@@H](C(=C)C)[C@](C)(CCC(=O)O)C3=CC[C@]12C)C(C)C [PORICOIC ACID A] |  |  |  |  |  | > 100 | 38 |  |  | 
C=C(C)[C@@H]1CC=C2C(=CC[C@]3(C)[C@@H]([C@@H](CCC=C(C)C)C(=O)O)[C@H](O)C[C@@]23C)[C@@]1(C)CCC(=O)O [PORICOIC ACID B] |  |  |  |  |  | > 100 | > 100 |  |  | 
C=C(C)[C@@H]1CC=C2C(=CC[C@]3(C)[C@@H]([C@@H](CCC(=C)C(C)(C)O)C(=O)O)[C@H](O)C[C@@]23C)[C@@]1(C)CCC(=O)OC [PORICOIC ACID DM] |  |  |  |  |  | > 100 | > 100 |  |  | 
C=C(C)[C@@H]1CCC2=C(CC[C@]3(C)[C@@H]([C@@H](CCC=C(C)C)C(=O)O)[C@H](O)C[C@@]23C)[C@@]1(C)CCC(=O)OC [PORICOIC ACID GM] | 216 | 70 | 0 | 19.9 | 60.1 |  |  | 86.4 |  | 
C=C(C)[C@@H]1CCC2=C(CC[C@]3(C)[C@@H]([C@@H](CCC=C(C)C)C(=O)O)[C@H](O)C[C@@]23C)[C@@]1(C)CCC(=O)O [PORICOIC ACID G] |  |  |  |  |  | > 100 | 32.6 |  |  | 
C=C(CC[C@@H](C(=O)O)[C@H]1[C@H](O)C[C@@]2(C)C3=C(CC[C@]12C)[C@@](C)(CCC(=O)O)[C@H](C(=C)C)CC3)C(C)C [PORICOIC ACID H] |  |  |  |  |  | > 100 | 28.4 |  |  | 

Second part, led by results:

IC50 [5] [molar ratio] | SMILES | viability at 1000 molar ratio [1] [%] | level, % of control [2] [%] | level, % of control [3] [%] | level, % of control [4] [%] | IC50 [6] [µM] | IC50 [7] [µM] | level, % of control [8] [%] | inhibition (INH) [9] [%] | inhibition (INH) [10] [%]
299 | C=C(CC[C@@H](C(=O)O)[C@H]1[C@H](O)C[C@@]2(C)C3=C(CC[C@]12C)[C@@]1(C)CCC(=O)C(C)(C)[C@@H]1CC3)C(C)(C)O | 70 | 0 | 36.1 | 72.2 | 28.7 | 84.7 | 96.1 |  | 
348 | C=C(CC[C@@H](C(=O)O)[C@H]1[C@H](O)C[C@@]2(C)C3=C(CC[C@]12C)[C@@]1(C)CCC(=O)C(C)(C)[C@@H]1CC3)C(C)C | 70 | 2.2 | 28.3 | 70.3 | > 100 | > 100 | 96.4 |  | 
201 | C=C(C)[C@@H]1CC=C2C(=CC[C@]3(C)[C@@H]([C@@H](CCC(=C)C(C)(C)O)C(=O)O)CC[C@@]23C)[C@@]1(C)CCC(=O)O [25-HYDROXYPORICOIC ACID C] | 70 | 0 | 16.2 | 57.1 | 92.7 | 30.8 | 83.1 |  | 
268 | C=C(C)[C@@H]1CC=C2C(=CC[C@]3(C)[C@@H]([C@@H](CCC(=C)C(C)(C)OC)C(=O)O)[C@H](O)C[C@@]23C)[C@@]1(C)CCC(=O)O [25-METHOXYPORICOIC ACID A] | 70 | 0 | 17.8 | 58.2 | > 100 | > 100 | 84.4 | 20 | 80
397 | CC1=C(/C=C/C(C)=C/C=C/C(C)=C/C=C/C=C(C)/C=C/C=C(C)/C=C/C2=C(C)CCCC2(C)C)C(C)(C)CCC1 [BETA CAROTENE] |  | 8.6 | 34.2 | 82.1 |  |  | 100 |  | 
219 | C=C(CC[C@@H](C(=O)O)[C@H]1[C@H](O)C[C@@]2(C)C3=C(CC[C@]12C)[C@@](C)(CCC(=O)OC)[C@H](C(=C)C)CC3)C(C)C [PORICOIC ACID HM] | 70 | 0 | 20.3 | 61.3 |  |  | 87.5 |  | 
